Results: article PMC2753520 (Journal of medicinal chemistry, 2009)

Assay: PAMPA passive permeability
Format: in vitro ADME
Conditions: pH 7.4

## CCCCCCOc1ccc(C(=O)CCN(C)C)c2ccccc12 [13{1}]
  Permeability (PAMPA, Pe): high permeability
